Laboratory results published in publication PMC6917776, “Discovery of a chemical probe for PRDM9” (Nature Communications, 2019).
“And” between values parts separate entries of the source, which are not always exact repeats. Equal values may be shown once. Read-outs that look alike come from different tables or passages of the source.

Experiments:
[1] = target: T1, PRDM9 (amino acids: 195–415) (Homo sapiens, UniProt Q9NQV7); assay: PRDM9 methyltransferase activity assay (3H-SAM scintillation proximity assay); assay type: biochemical; details: 100 µM compound
T1 construct: PRDM9 (amino acids: 195–415)
T1 sequence (Q9NQV7 195-415): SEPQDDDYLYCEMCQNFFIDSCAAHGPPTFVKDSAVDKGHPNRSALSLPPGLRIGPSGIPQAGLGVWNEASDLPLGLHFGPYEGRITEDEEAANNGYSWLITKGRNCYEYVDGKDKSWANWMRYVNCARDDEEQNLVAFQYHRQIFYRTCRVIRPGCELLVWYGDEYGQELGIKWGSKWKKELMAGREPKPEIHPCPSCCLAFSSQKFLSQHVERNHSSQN

[2] = test system: panel of 108 enzymes and receptors; assay: Eurofins Panlabs customized panel profiling; assay type: binding
[3] = target: T2, Muscarinic M2 (Homo sapiens, UniProt P08172); assay: GPCR functional activity, GloSensor assay (agonist and antagonist mode); assay type: cell-based; details: for M2 Tango Agonist, raw signal / M2 Tango Antagonist, raw signal: replicates 1-4
T2 construct: NIMH Psychoactive Drug Screening Program, University of North Carolina at Chapel Hill
T2 sequence (P08172 1-466): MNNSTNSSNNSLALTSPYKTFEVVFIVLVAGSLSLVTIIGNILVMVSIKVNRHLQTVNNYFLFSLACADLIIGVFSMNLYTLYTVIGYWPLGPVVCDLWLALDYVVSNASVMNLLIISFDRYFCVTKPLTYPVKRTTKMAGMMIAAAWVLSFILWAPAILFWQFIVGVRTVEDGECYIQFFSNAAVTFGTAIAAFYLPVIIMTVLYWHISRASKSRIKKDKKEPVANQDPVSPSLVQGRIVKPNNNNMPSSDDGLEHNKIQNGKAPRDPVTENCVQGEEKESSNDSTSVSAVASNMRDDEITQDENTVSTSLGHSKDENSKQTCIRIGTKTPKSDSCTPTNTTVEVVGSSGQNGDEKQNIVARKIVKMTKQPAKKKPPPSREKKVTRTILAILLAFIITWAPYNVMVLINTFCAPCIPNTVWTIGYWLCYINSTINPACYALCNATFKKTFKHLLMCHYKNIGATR

[4] = target: T3, Opiate µ receptor (Homo sapiens, UniProt P35372); assay: Eurofins Panlabs panel, radioligand binding; details: at 10 µM
T3 construct: Eurofins Panlabs Discovery Services, Taiwan
T3 sequence (P35372 whole entry): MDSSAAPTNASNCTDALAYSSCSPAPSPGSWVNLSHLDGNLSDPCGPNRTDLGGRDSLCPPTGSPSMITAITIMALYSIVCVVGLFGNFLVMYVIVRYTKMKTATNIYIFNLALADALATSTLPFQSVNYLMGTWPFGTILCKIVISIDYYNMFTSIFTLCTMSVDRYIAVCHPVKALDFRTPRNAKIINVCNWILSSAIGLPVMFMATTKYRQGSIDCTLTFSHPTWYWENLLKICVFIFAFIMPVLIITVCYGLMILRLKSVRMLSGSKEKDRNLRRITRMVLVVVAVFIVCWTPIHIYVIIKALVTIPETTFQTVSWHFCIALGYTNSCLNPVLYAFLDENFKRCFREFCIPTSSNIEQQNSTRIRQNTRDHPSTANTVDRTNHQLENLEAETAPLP

[5] = target: T4, PRDM9 (Homo sapiens, UniProt Q9NQV7); assay: MOA determination: IC50 at varying SAM or peptide concentrations (SPA); assay type: biochemical
T4 construct: PRDM9 (amino acids: 195–415)
T4 sequence (Q9NQV7 195-415): T1 sequence (Q9NQV7 195-415)
From the text: Reactions (in quadruplicates) were initiated by adding SAM and followed by measuring the methyltransferase activity using SPA assay. The determined IC50 values were fitted against the corresponding substrate concentrations. An increase in IC50 values when concentration of peptide was increased indicated a peptide-competitive pattern of inhibition.

[6] = target: T5, Histamine H3 (Homo sapiens, UniProt Q9Y5N1); assay: GPCR functional activity, GloSensor assay (agonist and antagonist mode); assay type: cell-based
T5 construct: NIMH Psychoactive Drug Screening Program, University of North Carolina at Chapel Hill
T5 sequence (Q9Y5N1 whole entry): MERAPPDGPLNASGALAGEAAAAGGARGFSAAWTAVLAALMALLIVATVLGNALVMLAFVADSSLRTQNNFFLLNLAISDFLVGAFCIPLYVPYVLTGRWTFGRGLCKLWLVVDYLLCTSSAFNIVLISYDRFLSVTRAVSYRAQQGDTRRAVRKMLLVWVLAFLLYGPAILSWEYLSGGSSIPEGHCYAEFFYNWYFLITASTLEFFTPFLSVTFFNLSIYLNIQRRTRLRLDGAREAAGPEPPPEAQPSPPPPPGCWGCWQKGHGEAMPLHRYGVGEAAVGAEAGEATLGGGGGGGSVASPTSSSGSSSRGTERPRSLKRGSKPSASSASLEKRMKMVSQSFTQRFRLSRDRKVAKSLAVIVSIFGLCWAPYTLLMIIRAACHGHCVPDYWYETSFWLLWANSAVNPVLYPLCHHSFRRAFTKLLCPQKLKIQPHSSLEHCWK
From the text: Supplementary Figure 5. Assessment of GPCR functional activity. GloSensor® assay was
profiles were generously provided by the National Institute of Mental Health’s (NIMH)
Psychoactive Drug Screening Program, (Contract # HHSN-271-2013-00017-C) directed by B.L.
Roth, University of North Carolina at Chapel Hill and Project Officer J. Driscoll at NIMH,
Bethesda, Maryland, USA. Further details available at https://pdspdb.unc.edu/pdspWeb/.
MOR stands for “Opiate µ receptor”. […]
[…] Source data are provided as a

COc1cc(OC)cc(-c2noc(N3CCN(C)C4(CCN(c5ccccc5)CC4)C3)n2)c1 [MRK-740-NC]
PRDM9-Activity %, single experiments [1]: 82.7625% and 75.9398%

COc1cc(OC)cc(-c2noc(N3CCN(C)C4(CCN(c5ccnc(C)c5)CC4)C3)n2)c1 [MRK-740]
Panel of 108 enzymes and receptors: targets with significant (>50% at 10 µM) binding [2]: binding only to Adrenergic α2B, Histamine H3, Muscarinic M2 and Opiate µ receptors | Functional activity (in words) ([3]; agonist and antagonist mode): no functional activity | M2 Tango Agonist, raw signal ([3]; log[MRK-740] -4.52): 1230.87 and 608.6 and 2018.05 and 925.229 | M2 Tango Antagonist, raw signal ([3]; log[MRK-740] -4.52): 1892.98 and 2737.32 and 2580.15 and 2057.03 | M2 Tango Agonist, raw signal ([3]; log[MRK-740] -5): 1170.4 and 556.928 and 885.65 and 2239.04 | M2 Tango Antagonist, raw signal ([3]; log[MRK-740] -5): 2819.92 and 2620.3 and 3056.24 and 3398.11 | M2 Tango Agonist, raw signal ([3]; log[MRK-740] -5.52): 908.738 and 686.657 and 1321.02 and 1693.72 | M2 Tango Antagonist, raw signal ([3]; log[MRK-740] -5.52): 11268.6 and 11778 and 17270.9 and 14621.3 | M2 Tango Agonist, raw signal ([3]; log[MRK-740] -6): 612.997 and 2403.96 and 980.199 and 1368.29 | M2 Tango Antagonist, raw signal ([3]; log[MRK-740] -6): 16800.4 and 13053.9 and 12658.1 and 16097 | M2 Tango Agonist, raw signal ([3]; log[MRK-740] -6.52): 1008.78 and 553.629 and 1327.61 and 250.195 | M2 Tango Antagonist, raw signal ([3]; log[MRK-740] -6.52): 19522.3 and 17447.6 and 21435.3 and 11694.3 | M2 Tango Agonist, raw signal ([3]; log[MRK-740] -7): 841.674 and 505.256 and 883.451 and 1474.94 | M2 Tango Antagonist, raw signal ([3]; log[MRK-740] -7): 19642.8 and 20162.6 and 13226 and 9835.52 | M2 Tango Agonist, raw signal ([3]; log[MRK-740] -7.52): 1908.11 and 681.16 and 1388.08 and 3242.84 | M2 Tango Antagonist, raw signal ([3]; log[MRK-740] -7.52): 21785.3 and 16504.3 and 11050.6 and 14699.4 | M2 Tango Agonist, raw signal ([3]; log[MRK-740] -8): 903.241 and 865.861 and 1293.53 and 833.978 | M2 Tango Antagonist, raw signal ([3]; log[MRK-740] -8): 17075.8 and 13974.2 and 18134.9 and 13350 | M2 Tango Agonist, raw signal ([3]; log[MRK-740] -8.52): 3423.68 and 634.694 and 1797.23 and 346.523 | M2 Tango Antagonist, raw signal ([3]; log[MRK-740] -8.52): 19019.9 and 15122.7 and 15169.2 and 14917.8 | M2 Tango Agonist, raw signal ([3]; log[MRK-740] -9): 2386.23 and 137.073 and 3399.79 and 858.202 | M2 Tango Antagonist, raw signal ([3]; log[MRK-740] -9): 17183.9 and 21120.4 and 14888.7 and 14358.1 | M2 Tango Agonist, raw signal ([3]; log[MRK-740] -9.52): 623.448 and 315.598 and 869.448 and 1092.96 | M2 Tango Antagonist, raw signal ([3]; log[MRK-740] -9.52): 22350.3 and 15858.2 and 16819.1 and 15951.3 | M2 Tango Agonist, raw signal ([3]; log[MRK-740] -10): 2109.3 and 935.517 and 704.979 and 1937.8 | M2 Tango Antagonist, raw signal ([3]; log[MRK-740] -10): 21021.6 and 16763.8 and 20216.2 and 13987.5 | M2 Tango Agonist, raw signal ([3]; log[MRK-740] -10.52): 1187.14 and 1805.66 and 1171.68 and 1424.71 | M2 Tango Antagonist, raw signal ([3]; log[MRK-740] -10.52): 18293 and 14853.8 and 17839.5 and 22558.2 | M2 Tango Agonist, raw signal ([3]; log[MRK-740] -11): 648.751 and 5178.11 and 914.431 and 991.746 | M2 Tango Antagonist, raw signal ([3]; log[MRK-740] -11): 17836.6 and 15099.5 and 17153.4 and 15587.9 | M2 Tango Agonist, raw signal ([3]; log[MRK-740] -11.52): 2954.16 and 1388.16 and 1004.4 and 790.728 | M2 Tango Antagonist, raw signal ([3]; log[MRK-740] -11.52): 13959.9 and 19316.4 and 14923.6 and 25119.7 | M2 Tango Agonist, raw signal ([3]; log[MRK-740] -12): 606.579 and 917.242 and 726.065 and 3353.4 | M2 Tango Antagonist, raw signal ([3]; log[MRK-740] -12): 15989 and 24141.3 and 15762.3 and 20389.2 | Binding [4]: > 50% | Pattern of PRDM9 inhibition with respect to SAM ([5]; 20 µM peptide, SAM 22 to 350 µM): uncompetitive pattern | Ki ([5]; 20 µM peptide, varying SAM, read-out: Ki, estimated from asymptote of Fig 2d): ~0.16 µM | Pattern of PRDM9 inhibition with respect to peptide (H3 1–25) substrate ([5]; 350 µM SAM, peptide 1.25 to 20 µM): competitive pattern of PRDM9 inhibition | Ki ([5]; 350 µM SAM, varying H3 1–25 peptide, read-out: Ki, calculated from Y intercept of Fig. 2e): 0.065 ± 0.006 µM | IC50 ([5]; [H3 1-25]/Km 1.25, Figure 2e, average of replicates, read-out: Average IC50): 0.0749 µM | IC50 ([5]; [H3 1-25]/Km 1.25, Figure 2e, read-out: IC50 (µM), replicates): 0.0747 µM and 0.0785 µM and 0.0703 µM and 0.0762 µM | IC50 ([5]; [H3 1-25]/Km 2.5, Figure 2e, average of replicates, read-out: Average IC50): 0.0926 µM | IC50 ([5]; [H3 1-25]/Km 2.5, Figure 2e, read-out: IC50 (µM), replicates): 0.0843 µM and 0.0895 µM and 0.0878 µM and 0.109 µM | IC50 ([5]; [H3 1-25]/Km 5, Figure 2e, average of replicates, read-out: Average IC50): 0.125 µM | IC50 ([5]; [H3 1-25]/Km 5, Figure 2e, read-out: IC50 (µM), replicates): 0.129 µM and 0.102 µM and 0.118 µM and 0.151 µM | IC50 ([5]; [H3 1-25]/Km 10, Figure 2e, average of replicates, read-out: Average IC50): 0.169 µM | IC50 ([5]; [H3 1-25]/Km 10, Figure 2e, read-out: IC50 (µM), replicates): 0.138 µM and 0.151 µM and 0.173 µM and 0.215 µM | IC50 ([5]; [H3 1-25]/Km 20, Figure 2e, average of replicates, read-out: Average IC50): 0.254 µM | IC50 ([5]; [H3 1-25]/Km 20, Figure 2e, read-out: IC50 (µM), replicates): 0.228 µM and 0.278 µM and 0.257 µM | IC50 ([5]; [SAM]/Km 0.18, Figure 2d, average of replicates, read-out: Average IC50): 0.893 µM | IC50 ([5]; [SAM]/Km 0.18, Figure 2d, read-out: IC50 (µM), replicates): 0.838 µM and 0.633 µM and 1.03 µM and 1.07 µM | IC50 ([5]; [SAM]/Km 0.36, Figure 2d, average of replicates, read-out: Average IC50): 0.704 µM | IC50 ([5]; [SAM]/Km 0.36, Figure 2d, read-out: IC50 (µM), replicates): 0.519 µM and 0.651 µM and 0.615 µM and 1.03 µM | IC50 ([5]; [SAM]/Km 0.73, Figure 2d, average of replicates, read-out: Average IC50): 0.374 µM | IC50 ([5]; [SAM]/Km 0.73, Figure 2d, read-out: IC50 (µM), replicates): 0.349 µM and 0.395 µM and 0.369 µM and 0.382 µM | IC50 ([5]; [SAM]/Km 1.46, Figure 2d, average of replicates, read-out: Average IC50): 0.275 µM | IC50 ([5]; [SAM]/Km 1.46, Figure 2d, read-out: IC50 (µM), replicates): 0.27 µM and 0.288 µM and 0.249 µM and 0.292 µM | IC50 ([5]; [SAM]/Km 2.92, Figure 2d, average of replicates, read-out: Average IC50): 0.21 µM | IC50 ([5]; [SAM]/Km 2.92, Figure 2d, read-out: IC50 (µM), replicates): 0.18 µM and 0.228 µM and 0.197 µM and 0.236 µM | Effect of SAH on PRDM9 inhibition by MRK-740, compared with SAM ([5]; increasing SAH in parallel to SAM): did not have the same effect | Functional activity (in words) [6]: no functional activity
